The text below walks through data of patent publication US12721838B2 (Henry Ford Health System, priority 2020, dated 2026).

Series [1] deals with LNCaP-ENR and MR49F ERPC cells. Briefly: In vitro invasion through extracellular matrix. Format: cell-based, human. The following applies: LNCaP-ENR and MR49F ERPC cells (data not shown).
The subject of series [2] is c-JNK, caspase 3. Briefly: Activation of c-JNK and caspase 3. Format: cell-based, human. The following applies: LNCaP-ENR cells. Here is the method: To explore the underlying mechanism of DCV-induced apoptosis in ERPC cells, the effect of DCV on Jun N-terminal kinases (JNKs) was analyzed. JNKs play a critical role in apoptotic pathways. […] Both caspase-dependent and caspase-independent apoptotic cell death processes are known.

For series [3], the system named is LNCaP-ENR cells. Nature of the series: Cell cycle distribution. The format is cell-based, human. The following applies: ERPC cells; FIG. 16 at 8 μM.
Series [4] relates to ERPC cells. Briefly: DNA degradation assay. The format is cell-based, human. An excerpt: FIG. 17 depicts a graph showing the apoptotic effects of DCV as measured by DNA degradation assay.
For series [5], the target named is T1, pure Trib2 protein (Homo sapiens, UniProt Q92519).
T1 sequence (Q92519 1-343): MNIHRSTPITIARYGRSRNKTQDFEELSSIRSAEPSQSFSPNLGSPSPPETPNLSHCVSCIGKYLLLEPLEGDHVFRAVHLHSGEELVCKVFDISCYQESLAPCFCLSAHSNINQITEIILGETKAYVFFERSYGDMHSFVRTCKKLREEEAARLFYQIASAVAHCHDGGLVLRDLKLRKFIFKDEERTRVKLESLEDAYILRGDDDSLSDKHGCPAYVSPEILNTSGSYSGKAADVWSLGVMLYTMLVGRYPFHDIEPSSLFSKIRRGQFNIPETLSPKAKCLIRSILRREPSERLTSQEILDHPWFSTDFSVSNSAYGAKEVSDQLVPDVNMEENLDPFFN
Nature of the series: Thermal shift assay by Differential Scanning Spectro-fluorometry. Format: binding. The settings on record: decreased from 41° C. (DMSO only). An excerpt:
FIG. 8 depicts a graph showing the results of a thermal shift assay of pure Trib2 protein by Differential Scanning Spectro-fluorometry.

Series [6] concerns ERPC tumors (LNCaP-ENR cells).
Experimental: BALB/c nude mice were subcutaneously injected with the LNCaP-ENR cells (1×10^6 cells per mouse) to develop tumors. Once the tumors reached a size of ~100 cubic mm, the mice were treated with 30 mg/kg/day DCV or a solution of DMSO:cremophor:PBS at 1:1:8 ratio, orally for four weeks (n=3). Tumor size and body weights were measured once per week. Tumor volumes were calculated using the following formula:
[formula] • Wherein “TV” means tumor volume; • “a” is the long diameter of a tumor; and • “b” is the short diameter of a tumor.
Tumor samples were collected at 4 weeks post-treatment, and TRIB2 protein levels in the tumors were determined by immunohistochemistry (IHC) using monoclonal anti-Trib2 antibody (Santa Cruz Bio, Santa Cruz, CA; Cat. No.: 100878) at 1:100.
For series [7] the following is noted: cited from earlier work.
Series [8] concerns the target T2, Trib2-Luciferase (Luc-Trib2) fusion (Homo sapiens, UniProt Q92519).
T2 sequence (Q92519 with tags, fused parts or gaps): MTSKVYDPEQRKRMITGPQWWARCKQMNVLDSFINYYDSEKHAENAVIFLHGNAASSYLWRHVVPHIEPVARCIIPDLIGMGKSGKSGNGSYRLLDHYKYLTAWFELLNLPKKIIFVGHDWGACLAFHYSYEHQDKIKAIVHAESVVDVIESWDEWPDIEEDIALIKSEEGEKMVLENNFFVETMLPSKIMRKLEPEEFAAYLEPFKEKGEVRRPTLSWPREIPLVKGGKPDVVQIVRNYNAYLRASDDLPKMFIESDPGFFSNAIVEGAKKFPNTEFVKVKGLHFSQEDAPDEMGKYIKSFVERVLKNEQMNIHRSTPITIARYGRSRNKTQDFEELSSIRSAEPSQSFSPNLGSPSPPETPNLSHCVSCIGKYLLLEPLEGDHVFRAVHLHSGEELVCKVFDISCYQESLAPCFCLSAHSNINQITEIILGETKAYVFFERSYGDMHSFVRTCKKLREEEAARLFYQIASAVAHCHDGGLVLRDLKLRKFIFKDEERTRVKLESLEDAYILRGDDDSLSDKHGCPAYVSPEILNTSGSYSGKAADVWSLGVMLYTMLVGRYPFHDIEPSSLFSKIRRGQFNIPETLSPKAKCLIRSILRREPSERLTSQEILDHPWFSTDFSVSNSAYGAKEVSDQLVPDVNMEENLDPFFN
Briefly: cell-based. The settings on record: HFF.

Series [9] concerns the target T3, TRIB2 (Homo sapiens, UniProt Q92519).
T3 sequence (Q92519 1-343): T1 sequence (Q92519 1-343)
Briefly: Western blot of TRIB2 protein levels in cancer cells. Also noted: Whole cell lysate proteins were analyzed by Western blot; endogenous in cells; host or cells: LNCaP-ENR (enzalutamide-resistant LNCaP) cells. The following applies: for TRIB2 protein levels: LNCaP-ENR cells, 24 hours. Format: cell-based. The protocol:
Enzalutamide-resistant prostate cancer (ERPC) cells (LNCaP-ENR cells) were plated and treated with 10 μM each of various compounds for 24 hours. Exemplary methods for developing and using LNCaP-ENR cells is disclosed in Monga, J., Subramani, D., Bharathan, A., and Ghosh, J. (2020) “Pharmacological and genetic targeting of 5-lipoxygenase interrupts c-Myc oncogenic signaling and kills enzalutamide-resistant prostate cancer cells via apoptosis.” Scientific Reports 10: 6649, the disclosure of which is incorporated herein by reference in its entirety. Whole cell lysate proteins were analyzed by Western blot. TRIB2 antibody was used to detect protein levels of TRIB2 and GAPDH was used as loading control. Monoclonal anti-Trib2 antibody was purchased from Santa Cruz Biotech, Santa Cruz, CA.
LNCaP-ENR cells were treated with varying doses (4 μM, 8 μM, or 12 μM) of DCV for 24 hours. Effects on TRIB2 protein levels and its downstream targets (e.g., pAkt, Bcl-xL, Survivin, and FOXO3) were analyzed by Western blot. GAPDH was used as loading control. Protein levels of TRIB2, pAKT (S473), Bcl-xL, and Survivin were reduced in cells treated with 12 μM of DCV compared to control-treated cells (FIG. 3A). Levels of FOXO3 protein were increased at 12 μM of DCV treatment compared to control treatment. This was expected, as FOXO3 level is known to be decreased by Trib2. These effects on cellular protein levels were DCV concentration-dependent, with the most pronounced effects observed at the highest concentration tested (12 μM).

Regarding `COC(=O)N[C@H](C(=O)N1CCC[C@H]1c1nc(-c2ccc(-c3ccc(-c4c[nH]c([C@@H]5CCCN5C(=O)[C@@H](NC(=O)OC)C(C)C)n4)cc3)cc2)c[nH]1)C(C)C` [Daclatasvir, 4,4′-bis[2-((2S)-1-{(2S)-2-[(methoxycarbonyl)amino]-3-methylbutanoyl}-2-pyrrolidinyl)-1H-imidazol-4-yl]-1,1′-biphenyl], the “in vitro invasion through extracellular matrix” value in series [1] is on record as “dramatically decreases”. Besides, the “activation of caspase 3” value in [2] was “induces activation”. Moreover, the “activation of c-JNK” value in series [2] (dose-dependent) is “rapid and robust activation”. Moreover, in series [3], the cell cycle progression result is reported as “arresting them at G0/G1 phase”. The “degradation of chromatin DNA” value in series [4] is “triggers degradation of chromatin DNA to nucleosomal fragments”. In addition, in series [5], the “Tm of Trib2 protein in presence of DCV” value amounted to 37 °C. Also, the Tumor volumes entry in [6] (30 mg/kg/day orally for four weeks, vs vehicle-treated animals) was “significantly reduced”. Moreover, the “TRIB2 protein levels in tumors by IHC” value in [6] (30 mg/kg/day orally, 4 weeks) was “reduced”. Besides, the uptake rate result in series [7] (delivered orally) is given as “about 67%”. Besides, in series [7] (in vivo), the protein bound is given as ~ 99%. In addition, in [7] (mammalian hosts), the half-life entry was “about 15 hours” and the tolerability result is listed as “very well tolerated”. Further, in series [8] (read-out: Luciferase activity (%)), the activity at 10 µM came to 28%. Also, in [8] (read-out: inhibition of Trib2-luciferase activity), the inhibition at 10 µM is more than 70%. Moreover, the TRIB2 protein levels result in series [9] (10 μM, Western blot) is listed as “downregulated”. In addition, the TRIB2 protein levels result in [9] (12 μM, vs control-treated cells) is listed as “reduced”. For the same compound, the Trib2 protein level result in series [9] (range of aggressive cancer cell lines, including prostate, lung, and kidney) is listed as “downregulates”.
